System: HT29 colon cells
Assay: DCFDA cellular ROS production assay
Type: cell-based, human
Conditions: 24 h, GI50 drug concentration (TBHP 20 μM), control 60 ± 3
Description: All values are expressed as relative fluorescence units (RFU).
To evaluate the presence of ROS in treated cells, a DCFDA/H2DCFDA-cellular ROS Assay Kit (Abcam, Cambridge, MA, USA) was used, as previously described. A total of 25,000 cells/mL of HT29 cells in DMEM were seeded in 96-well plates. Cells were washed with 1X kit buffer, and then stained with 25 μM 2′,7′-dichlorofluorescein diacetate (DCFH-DA) and incubated for 45 min. DCFH-DA was then removed, and cells were then re-washed with 1X kit buffer, after which phenol red free media was added. Cells were then treated with a GI50 drug concentration for each complex. The plates were directly scanned to measure fluorescence (relative fluorescence units (RFU)) at the time points indicated the Glo-Max®-Multimode microplate reader (Promega Corporation, Alexandra, VIC, Australia) at an excitation/emission of 485/535 nm, which is directly correlated to the DCFH-DA that is deacetylated by cellular esterases and then oxidised by ROS to the fluorescent compound DCF. To generate the positive control (20 μM tert-butyl hydroperoxide (TBHP)), cells were washed with 1X kit buffer, and stained with DCFDA (25 μM) for 45 min; this was removed and TBHP was added in phenol red free media, and the resulting solution was scanned as described above.

| Structure (SMILES) | ROS Production [RFU] |
| --- | --- |
| CC(C)(C)OO [TBHP, tert-butyl hydroperoxide] | 614 ± 21 |

Same assay, conditions: 48 h, GI50 drug concentration (TBHP 20 μM), control 63 ± 4

| Structure (SMILES) | ROS Production [RFU] |
| --- | --- |
| CC(C)(C)OO [TBHP, tert-butyl hydroperoxide] | 477 ± 23 |

Same assay, conditions: 72 h, GI50 drug concentration (TBHP 20 μM), control 85 ± 6

| Structure (SMILES) | ROS Production [RFU] |
| --- | --- |
| CC(C)(C)OO [TBHP, tert-butyl hydroperoxide] | 311 ± 18 |

System: HT29 colon cells
Assay: TMRE mitochondrial membrane potential (MtMP) assay
Type: cell-based, human
Conditions: 24 h, GI50 drug concentration (FCCP 20 μM), control 542 ± 4
Description: This was achieved by determining if the overproduction of ROS induced by these complexes impacts mitochondrial activity by altering MtMP. Briefly, there is evidence showing a strong correlation between increased levels of ROS and mitochondrial impairment. […] The MtMP changes recorded are measured as RFU. […] To investigate the MtMP changes in HT29 treated cells, a TMRE-MtMP Assay Kit (Abcam, Cambridge, MA, USA) was used, as previously described. In 96-well plates, 25,000 cells/mL of HT29 colon cells in DMEM were seeded. Cells were treated with a GI50 drug concentration for each complex. At 24, 48 or 72 h, cells were washed with PBS and stained with tetramethylrhodamine, ethyl ester (TMRE) (1 μM) and incubated for 30 min. TMRE was then removed, and cells were then re-washed with PBS (0.2% BSA), after which phenol red free media was added. The plates were directly scanned to measure fluorescence (expressed as RFU), using the Glo-Max®-Multimode microplate reader (Promega Corporation, Alexandra, VIC, Australia) at an excitation/emission of 549/575 nm. For the positive control, 20 μM carbonyl cyanide 4-(trifluoromethoxy) phenylhydrazone (FCCP)) was added to the cells and incubated for 10 min. The cells were washed with PBS (0.2% BSA) and stained with TMRE (1 μM) for 30 min; this was removed, and phenol red free media was added, and the final solution was scanned as mentioned above.

| Structure (SMILES) | MtMP Changes [RFU] |
| --- | --- |
| Cc1cc2cccnc2c2ncccc12.N[C@H]1CCCC[C@@H]1N.[OH][Pt+2][OH] [5MESS(IV)(OH)2] | 311 ± 3 |

Same assay, conditions: 48 h, GI50 drug concentration (FCCP 20 μM), control 507 ± 11

| Structure (SMILES) | MtMP Changes [RFU] |
| --- | --- |
| Cc1cc2cccnc2c2ncccc12.N[C@H]1CCCC[C@@H]1N.[OH][Pt+2][OH] [5MESS(IV)(OH)2] | 291 ± 9 |

Same assay, conditions: 72 h, GI50 drug concentration (FCCP 20 μM), control 449 ± 10

| Structure (SMILES) | MtMP Changes [RFU] |
| --- | --- |
| Cc1cc2cccnc2c2ncccc12.N[C@H]1CCCC[C@@H]1N.[OH][Pt+2][OH] [5MESS(IV)(OH)2] | 228 ± 7 |

System: histone deacetylase (HDAC)
Assay: Fluorometric HDAC activity assay on extracts of treated HT29 cells
Type: cell-based, human
Conditions: HT29 colon cells treated 72 h at GI50 concentration; lower RFU = decline in HDAC activity; HT29 extract control 5154 ± 40
Description: All values are expressed as RFU.
To study the HDAC activity in HT29 treated cells, a Fluorometric HDAC Activity Assay Kit ab156064 (Abcam, Cambridge, MA, USA) was used and all sample preparations were made based on the manufacturer’s protocol. A total of 10^6 cells/mL of HT29 cells were seeded in DMEM with serum deprivation for 18 h to synchronise the cells. […] Cells were then washed with cold PBS and resuspended in lysis buffer (10 mM Tris HCl (pH 7.5), 10 mM NaCl, 15 mM MgCl2, 250 mM sucrose, 0.5% NP-40 and 0.1 mM EGTA) and lysed on ice for 20 min. Cells were centrifuged through 4 mL of sucrose cushion (30% sucrose, 10mM Tris HCl (pH 7.5), 10 mM NaCl and 3mM MgCl2) at 1300× g for 10 min at 4 °C. Supernatant was discarded and the pellet was washed and resuspended in extraction buffer (50 mM HEPES-KOH (pH 7.5), 420 mM NaCl, 0.5 mM EDTA 2Na, 0.1 mM EGTA and 10% glycerol) and then sonicated for 30 s. Nuclei were lysed for 30 min on ice and centrifuged at 20,000× g for 30 min. The supernatant was collected, and the samples were prepared for the fluorometric assay according to the manufacturer’s protocol (Histone Deacetylase (HDAC) Activity Assay Fluorometric Kit ab156064, Abcam). The changes in the relative fluorescence intensity (expressed as RFU) were recorded each minute over 60 min using the Glo-Max®-Multimode microplate reader (Promega Corporation, Alexandra, VIC, Australia) at an excitation/emission of 355/460 nm.

| Structure (SMILES) | HDAC Inhibition at 72 h [RFU] |
| --- | --- |
| Cc1cc2cccnc2c2ncccc12.N[C@H]1CCCC[C@@H]1N.[OH][Pt+2][OH] [5MESS(IV)(OH)2] | 3119 ± 9 |

System: HT29 colon
Assay: not given
Design: method as in PMID 36142383, PMID 37173934, PMID 36296713
Conditions: cited from earlier work

| Structure (SMILES) | GI50 [µM] |
| --- | --- |
| Cc1cc2cccnc2c2ncccc12.N[C@H]1CCCC[C@@H]1N.[OH][Pt+2][OH] [5MESS(IV)(OH)2] | 0.06 ± 0.006 |

System: U87 glioblastoma
Assay: not given
Design: method as in PMID 36142383, PMID 37173934, PMID 36296713
Conditions: cited from earlier work

| Structure (SMILES) | GI50 [µM] |
| --- | --- |
| Cc1cc2cccnc2c2ncccc12.N[C@H]1CCCC[C@@H]1N.[OH][Pt+2][OH] [5MESS(IV)(OH)2] | 0.9 ± 0.058 |

System: H460 lung
Assay: not given
Design: method as in PMID 36142383, PMID 37173934, PMID 36296713
Conditions: cited from earlier work

| Structure (SMILES) | GI50 [µM] |
| --- | --- |
| Cc1cc2cccnc2c2ncccc12.N[C@H]1CCCC[C@@H]1N.[OH][Pt+2][OH] [5MESS(IV)(OH)2] | 0.06 ± 0.005 |

System: A431 skin
Assay: not given
Design: method as in PMID 36142383, PMID 37173934, PMID 36296713
Conditions: cited from earlier work

| Structure (SMILES) | GI50 [µM] |
| --- | --- |
| Cc1cc2cccnc2c2ncccc12.N[C@H]1CCCC[C@@H]1N.[OH][Pt+2][OH] [5MESS(IV)(OH)2] | 0.36 ± 0.058 |

System: Du145 prostate
Assay: not given
Design: method as in PMID 36142383, PMID 37173934, PMID 36296713
Conditions: cited from earlier work

| Structure (SMILES) | GI50 [µM] |
| --- | --- |
| Cc1cc2cccnc2c2ncccc12.N[C@H]1CCCC[C@@H]1N.[OH][Pt+2][OH] [5MESS(IV)(OH)2] | 0.041 ± 0.005 |

System: BE2-C neuroblastoma
Assay: not given
Design: method as in PMID 36142383, PMID 37173934, PMID 36296713
Conditions: cited from earlier work

| Structure (SMILES) | GI50 [µM] |
| --- | --- |
| Cc1cc2cccnc2c2ncccc12.N[C@H]1CCCC[C@@H]1N.[OH][Pt+2][OH] [5MESS(IV)(OH)2] | 1.4 ± 0.3 |

System: SJ-G2 glioblastoma
Assay: not given
Design: method as in PMID 36142383, PMID 37173934, PMID 36296713
Conditions: cited from earlier work

| Structure (SMILES) | GI50 [µM] |
| --- | --- |
| Cc1cc2cccnc2c2ncccc12.N[C@H]1CCCC[C@@H]1N.[OH][Pt+2][OH] [5MESS(IV)(OH)2] | 0.64 ± 0.07 |

System: MIA pancreas
Assay: not given
Design: method as in PMID 36142383, PMID 37173934, PMID 36296713
Conditions: cited from earlier work

| Structure (SMILES) | GI50 [µM] |
| --- | --- |
| Cc1cc2cccnc2c2ncccc12.N[C@H]1CCCC[C@@H]1N.[OH][Pt+2][OH] [5MESS(IV)(OH)2] | 0.16 ± 0.029 |

System: A2780 ovarian
Assay: not given
Design: method as in PMID 36142383, PMID 37173934, PMID 36296713
Conditions: cited from earlier work

| Structure (SMILES) | GI50 [µM] |
| --- | --- |
| Cc1cc2cccnc2c2ncccc12.N[C@H]1CCCC[C@@H]1N.[OH][Pt+2][OH] [5MESS(IV)(OH)2] | 0.24 ± 0.009 |

System: cisplatin-resistant ADDP ovarian variant
Assay: not given
Design: method as in PMID 36142383, PMID 37173934, PMID 36296713
Conditions: cited from earlier work

| Structure (SMILES) | GI50 [µM] |
| --- | --- |
| Cc1cc2cccnc2c2ncccc12.N[C@H]1CCCC[C@@H]1N.[OH][Pt+2][OH] [5MESS(IV)(OH)2] | 0.13 ± 0.022 |

System: MCF-7 breast
Assay: not given
Design: method as in PMID 36142383, PMID 37173934, PMID 36296713
Conditions: cited from earlier work

| Structure (SMILES) | GI50 [µM] |
| --- | --- |
| Cc1cc2cccnc2c2ncccc12.N[C@H]1CCCC[C@@H]1N.[OH][Pt+2][OH] [5MESS(IV)(OH)2] | 1.2 ± 0.39 |

System: non-tumour-derived MCF10A breast line
Assay: not given
Design: method as in PMID 36142383, PMID 37173934, PMID 36296713
Conditions: cited from earlier work

| Structure (SMILES) | GI50 [µM] |
| --- | --- |
| Cc1cc2cccnc2c2ncccc12.N[C@H]1CCCC[C@@H]1N.[OH][Pt+2][OH] [5MESS(IV)(OH)2] | 0.13 ± 0.019 |

System: multiple human cell lines
Assay: not given
Design: method as in PMID 36142383, PMID 37173934, PMID 36296713
Conditions: average over all cell lines; cited from earlier work

| Structure (SMILES) | GI50 [µM] |
| --- | --- |
| Cc1cc2cccnc2c2ncccc12.N[C@H]1CCCC[C@@H]1N.[OH][Pt+2][OH] [5MESS(IV)(OH)2] | 0.443 ± 0.081 |

System: HT29 colon cells
Assay: not given
Design: method as in PMID 36142383, PMID 37173934, PMID 36296713
Conditions: 24 h; cited from earlier work

| Structure (SMILES) | ROS Production [RFU] |
| --- | --- |
| Cc1cc2cccnc2c2ncccc12.N[C@H]1CCCC[C@@H]1N.[OH][Pt+2][OH] [5MESS(IV)(OH)2] | 234 ± 1 |

Same assay, conditions: 48 h; cited from earlier work

| Structure (SMILES) | ROS Production [RFU] |
| --- | --- |
| Cc1cc2cccnc2c2ncccc12.N[C@H]1CCCC[C@@H]1N.[OH][Pt+2][OH] [5MESS(IV)(OH)2] | 323 ± 9 |

Same assay, conditions: 72 h; cited from earlier work

| Structure (SMILES) | ROS Production [RFU] |
| --- | --- |
| Cc1cc2cccnc2c2ncccc12.N[C@H]1CCCC[C@@H]1N.[OH][Pt+2][OH] [5MESS(IV)(OH)2] | 335 ± 2 |

— paper PMC10888562 (International Journal of Molecular Sciences, 2024)
